Data from patent USRE38970E1, “Indolyl or indolinyl derivatives and medicinal use thereof as ACAT or lipid peroxidation inhibitors” (Kyoto Pharmaceutical Industries, Ltd., priority 1995, dated 2006).
Converted amounts (≈) assume the structure as drawn.

Assays:
[1] = tested on: plasma lipoperoxidation; test: In vitro plasma lipoperoxidation inhibitory activity (malondialdehyde production); assay type: biochemical, Wister rats; conditions: rat heparinized plasma, test compound final concentration 10^-5M, copper sulfate, malondialdehyde production vs control
Protocol: Under ether anesthesia, blood was taken from male Wister rats weighing 160-190 g that had been fasted for 16 hours, and heparinized plasma was separated by conventional method. DMSO (10 μl) or a test compound (final concentration 10^−5M) dissolved in DMSO (test compound solution 10 μl) was added to plasma (1.0 ml), and the mixture was incubated at 37° C. for 5 minutes.

[2] = tested on: ACAT; test: ACAT inhibitory activity (cholesteryl oleate production by small intestine mucosal microsomes); assay type: biochemical, Japanese white rabbits; conditions: rabbit small intestine mucosal microsomes, [1-14C] oleoyl CoA, 37° C. 7 minutes, vs control; test concentration not given
[3] = tested on: serum total cholesterol; test: Serum total cholesterol reducing effect in rats on high cholesterol feed; assay type: in vivo; conditions: male Wister rats, vs control
Protocol: Mile Wister rats weighing 180-200 g were bred under free access to a high cholesterol feed [added with cholesterol (1%), cholic acid (0.5%) and coconut oil (10%), Clea Japan, Inc.] for 3 days, during which period a test compound (3 mg/kg and 10 mg/kg) suspended in 5% gum arabic solution was forcibly administered once a day orally for 3 days. Only 5% gum arabic solution was administered to control animals. After final administration, the test animals were fasted and blood was taken 5 hours later. The serum total cholesterol level was determined using a commercially available assay lit (cholesterol-CII-Test Wako, Wako Pure Chemical Industries, Ltd.).

[4] = Oral administration, plasma concentration in Wister rats; conditions: 30 mg/kg orally, fasted male Wister rats, sampled 0.5-6 hours
Protocol: (§1) At 0.5, 1, 2, 4 and 6 hours after administration, blood was taken and heparinized plasma was separated by conventional method.

[5] = Solubility in buffer pH 6.8; conditions: for solubility at 1 h: buffer pH 6.8, 25 °C, pH 6.8, aqueous buffer, thermodynamic from solid; for Solubility: buffer pH 6.8, shaken 1 hr at 25° C., HPLC
Protocol: A pulverized test compound (10 mg) was added to buffer (1 ml, pH 6.8), and the mixture was shaken for 1 br at 25° C.

[6] = tested on: plasma lipoperoxidation; test: Ex vivo plasma lipoperoxidation inhibitory activity after oral administration; assay type: in vivo; conditions: male Wister rats, plasma taken 1 hour after administration
Protocol: Under ether anesthesia, blood was taken from male Wister rats weighing 160-190 g that had been fasted for 16 hours, and heparinized plasma was separated by conventional method.
Only 5% gum arabic solution was administered to control animals. At 1 hour after administration, blood was taken under ether anesthesia and heparinized plasma was separated by conventional method. The plasma (1.0 ml) was processed in the same manner as in Experimental Example 3 and the amount of produced malondialdehyde was determined.

[7] = Oral administration, plasma concentration in SD rats; conditions: 30 mg/kg orally, fasted male SD rats, sampled 0.5-6 hours
Protocol: as §1

[8] = 3 mg/kg/day orally once a day for 3 days
[9] = 10 mg/kg/day orally once a day for 3 days

Compound | Inhibition (%) of plasma lipoperoxidation [1] [%] | ACAT inhibition (%) [2] [%] | Reduction (%) of serum total cholesterol [3, 8] [%] | Reduction (%) of serum total cholesterol [3, 9] [%] | further results
CCCCCCCCN1CCc2c(C)c(CO)c(C)c(NC(=O)C(C)(C)C)c21 [Example 1, N-(1-octyl-5-hydroxymethyl-4,6-dimethylindolin-7-yl)-2,2-dimethylpropanamide] | 51.7 | 99.2 | 52.8 | 57.1 | –
CCCCCCCCN1CCc2c(C)c(CC(=O)OCC)c(C)c(NC(=O)C(C)(C)C)c21 [Example 3, N-(1-octyl-5-ethoxycarbonylmethyl-4,6-dimethylindolin-7-yl)-2,2-dimethylpropanamide] | 49.2 | 92.5 | 54.2 | 61.2 | –
CCCCCCCCN1CCc2c(C)c(CC(=O)O)c(C)c(NC(=O)C(C)(C)C)c21 [Example 4, N-(1-octyl-5-carboxymethyl-4,6-dimethylindolin-7-yl)-2,2-dimethylpropanamide] | 51.2 | – | 58.8 | 57.5 | Highest concentration in plasma [4]: 1.4 µg/mL; solubility at 1 h [5]: 6900 µg/mL (≈ 16.6 mM); Inhibition (%) of plasma lipoperoxidation ([6]; 10 mg/kg orally): 39.0%; Highest concentration in plasma [7]: 13.6 µg/mL
CCCCCCCCN1CC(CCC(=O)O)c2c(C)cc(C)c(NC(=O)C(C)(C)C)c21 (stereo not shown) [Example 11, N-[(1-octyl-3-(2-carboxyethyl)-4,6-dimethylindolin-7-yl)]-2,2-dimethylpropanamide] | 44.5 | – | – | – | –
CCCCCCN1CCc2c(C)c(CC(=O)O)c(C)c(NC(=O)C(C)(C)C)c21 [Example 18] | – | – | – | – | Solubility [5]: 7300 µg/mL (≈ 18.8 mM)
CCCCCCCCCN1CCc2c(C)c(CC(=O)O)c(C)c(NC(=O)C(C)(C)C)c21 [Example 36] | – | – | – | – | Highest concentration in plasma [4]: 2.2 µg/mL; Solubility [5]: 4200 µg/mL (≈ 9.75 mM); Highest concentration in plasma [7]: 12.2 µg/mL
CCCCCCCCN1CCc2cc(CC(=O)O)c(C)c(NC(=O)C(C)(C)C)c21 [Example 71] | 48.1 | – | 26.5 | 52.3 | Solubility [5]: 100 µg/mL (≈ 0.248 mM)
CCCCCCCCN1CCc2cc(CO)c(C)c(NC(=O)C(C)(C)C)c21 [Example 76] | 51.7 | 94.7 | – | – | –
CCCCCCCCN1CCc2cc(CN(C)C)c(C)c(NC(=O)C(C)(C)C)c21 [Example 81] | 47.1 | – | 31.7 | 53.8 | –
CCCCCCCCN1CCc2cc(CC(=O)O)c(C)c(NC(=O)C(C)(C)C)c21 [Example 116] | 45.5 | 92.0 | 26.5 | 50.9 | –
CCCCCCCCN1CCc2c(C)c(CCC(=O)O)c(C)c(NC(=O)C(C)(C)C)c21 [Example 120, N-(1-octyl-5-carboxyethyl-4,6-dimethylindolin-7-yl)-2,2-dimethylpropanamide] | – | 92.3 | 45.8 | 44.6 | –
CCCCSCCCCCCN1CCc2c(C)c(CC(=O)O)c(C)c(NC(=O)C(C)(C)C)c21 [Example 121] | 41.6 | 92.5 | 87.8 | 48.1 | –
CCCCSCCCN1CCc2c(C)c(CC(=O)O)c(C)c(NC(=O)C(C)(C)C)c21 [Example 122] | – | 92.0 | 88.2 | 50.0 | –
CCCCCCCCN1CCCc2c(C)c(CC(=O)O)c(C)c(NC(=O)C(C)(C)C)c21 [Example 125, N-(1-octyl-6-carboxymethyl-5,7-dimethyl-1,2,3,4-tetrahydroquinolin-8-yl)-2,2-dimethylpropanamide] | 48.0 | 93.0 | 30.2 | 47.9 | –
CCCCCCCCN1CCc2cc(C(=O)O)c(C)c(NC(=O)C(C)(C)C)c21 [Example 155, N-(1-octyl-5carboxy-6-methylindolin-7-yl)-2,2-dimethylpropanamide] | 47.7 | – | 55.2 | 58.5 | –
CCCCCCCCN1CCc2c(C)c(C(=O)O)c(C)c(NC(=O)C(C)(C)C)c21 [Example 159] | 48.3 | – | 53.8 | 57.5 | –
CC(C)(Sc1cc(C(C)(C)C)c(O)c(C(C)(C)C)c1)Sc1cc(C(C)(C)C)c(O)c(C(C)(C)C)c1 [Probucol, 4,4-isopropylidenedithiobis(2,6-di-t-butylphenol), reference compound] | – | – | – | – | Inhibition (%) of plasma lipoperoxidation ([6]; 100 mg/kg orally): 15.4%
Cc1cc(C)c(NC(=O)N(Cc2ccc3c(c2)Cc2ccccc2-3)C2CCCCCC2)c(C)c1 [YM-750, 1-cycloheptyl-1-[(2-fluorenyl)methyl]-3-(2,4,6-trimethyl-phenyl) urea, reference compound] | – | 92.0 | 37.7 | 46.4 | solubility at 1 h [5]: < 10 µg/mL
